Experimental data taken from US10344019B2 (priority 2010, dated 2019).
Where two headings read alike, the source gives them in different places.

Experiments:
Assay in all cases: microbe, parasite or virus in culture
Assay type in all cases: cell-based
[1] = test system: HCV 1a RLuc cells (dicistronic genotype 1a H77 replicon, RLuc reporter); settings: Hepatitis C virus, read-out: 1a
Procedure: (§1) Evaluation of cell-based anti-HCV activity: Antiviral potency (EC50) was determined using a Renilla luciferase (RLuc)-based HCV replicon reporter assay. To perform the assay for genotype 1 and 2a JFH-1, HCV 1b RLuc cells (harboring a dicistronic genotype 1b Con1 replicon that encodes a RLuc reporter), or HCV 1a RLuc cells (harboring a dicistronic genotype 1a H77 replicon that encodes a RLuc reporter), or HCV 2a JFH-1 Rluc cells (harboring a dicistronic genotype 2a JFH-1 replicon that encodes a RLuc reporter) were dispensed into 384-well plates. To perform the assay for genotype 2a (with M31 present) or 2b, HCV 2a Rluc or 2b Rluc cells (both with M31 present) harboring a dicistronic NS5A chimeric genotype 2a JFH-1 replicon that encodes a RLuc reporter and either genotype 2a J6 strain NS5A gene or genotype 2b MD2b-1 NS5A gene (based on Los Alamos HCV database isolates, both with M31 present) respectively, were dispensed into 384-well plates. To perform the assay for genotype 3 and 4, HCV 3a RLuc or 4a Rluc cells harboring a dicistronic NS5A chimeric genotype 1b Con1 replicon that encodes a RLuc reporter and either a consensus genotype 3a NS5A gene or genotype 4a NS5A gene (based on Los Alamos HCV database isolates) respectively, were dispensed into 384-well plates. Compounds were re-suspended in DMSO at a concentration of 10 mM and serially diluted in DMSO either manually or using an automated pipeting instrument. Serially diluted compounds were mixed with cell culture media and added to the seeded cells. […] 72 hours later, cells were lysed and Renilla luciferase activity quantified as recommended by the manufacturer (Promega-Madison, Wis.). Non-linear regression was performed to calculate EC50 values.

[2] = test system: HCV 4a Rluc cells (NS5A chimeric genotype 1b Con1 replicon with genotype 4a NS5A gene); settings: Hepatitis C virus, read-out: 4a
Procedure: as §1

[3] = test system: HCV 3a RLuc cells (NS5A chimeric genotype 1b Con1 replicon with consensus genotype 3a NS5A gene); settings: Hepatitis C virus
Procedure: as §1

[4] = test system: HCV 2a JFH-1 Rluc cells (dicistronic genotype 2a JFH-1 replicon, RLuc reporter); settings: Hepatitis C virus, genotype 2a JFH-1 replicon, read-out: 2a JFH
Procedure: as §1

[5] = test system: HCV 1b RLuc cells (dicistronic genotype 1b Con1 replicon, RLuc reporter); settings: Hepatitis C virus, read-out: 1b (nM)
Procedure: as §1

[6] = 72 h, Table 2, genotype 1a H77 replicon, 72 hours
[7] = read-out: 3a, Table 2, genotype 3a NS5A chimeric replicon
[8] = genotype 1a H77 replicon, RLuc reporter
[9] = read-out: 3a, genotype 3a NS5A chimeric 1b Con1 replicon
[10] = 72 h, Table 1, genotype 1a H77 replicon, 72 hours
[11] = read-out: 3a, Table 1, genotype 3a NS5A chimeric replicon

SMILES | EC50 [2] [pM] | EC50 ([5]; 72 h) [nM] | EC50 [1, 8] [pM] | EC50 [3, 9] [pM] | EC50 ([4]; RLuc reporter) [pM] | EC50 [5] [nM] | also measured
COC(=O)N[C@H](C(=O)N1[C@@H]2CC[C@@H](C2)[C@H]1c1nc2ccc(-c3ccc4c(c3)C(F)(F)c3cc(-c5cnc([C@@H]6CCCN6C(=O)[C@H](NC(=O)OC)c6ccccc6)[nH]5)ccc3-4)cc2[nH]1)C1CCOCC1 [Example 57] | 1 to 990 | 0.009 | – | – | – | – | EC50 [1, 6]: 1 to 999 pM; EC50 [3, 7]: 1 to 990 pM; EC50 ([4]; 72 h, Table 2, 72 hours): 1 to 999 pM
COC(=O)N[C@H](C(=O)N1CCC[C@H]1c1ncc(-c2ccc(-c3ccc4c(c3)C(F)(F)c3cc(-c5cnc([C@@H]6CCCN6C(=O)[C@@H](NC(=O)OC)C(C)(C)C)[nH]5)ccc3-4)cc2)[nH]1)C1CCOCC1 [Example 201] | 1 to 990 | – | 1 to 999 | > 5000 | 1000 to 44000 | 0.018 | –
CC#Cc1cc(-c2cnc([C@@H]3CCCN3C(=O)[C@@H](NC(=O)OC)C(C)C)[nH]2)ccc1-c1ccc2c(ccc3nc([C@@H]4CCCN4C(=O)[C@@H](NC(=O)OC)C(C)C)[nH]c32)c1 [Example 372] | 1 to 990 | – | – | – | – | 0.008 | EC50 ([1]; genotype 1a replicon): 1 to 999 pM; EC50 ([3]; read-out: 3a, genotype 3a replicon): 1 to 990 pM; EC50 [4]: 1 to 999 pM
COC(=O)N[C@H](C(=O)N1CCC[C@H]1c1ncc(-c2cc3c4c(c2)CCc2cc(-c5cnc([C@@H]6CCCN6C(=O)[C@@H](NC(=O)OC)C6CCOCC6)[nH]5)cc(c2-4)CC3)[nH]1)C(C)C [Example 23] | 1 to 990 | 0.067 | – | – | – | – | EC50 [1, 10]: 1 to 999 pM; EC50 [3, 11]: 1 to 990 pM; EC50 ([4]; 72 h, Table 1, 72 hours): 1 to 999 pM
COC(=O)N[C@H](C(=O)N1CCC[C@H]1c1nc2ccc3cc(-c4ccc5cc(-c6cnc([C@@H]7[C@H]8CC[C@H](C8)N7C(=O)[C@H](NC(=O)OC)c7ccccc7)[nH]6)ccc5c4)ccc3c2[nH]1)C1CCOCC1 [Example 84] | 1 to 990 | 0.007 | – | – | – | – | EC50 [1, 6]: 1 to 999 pM; EC50 [3, 7]: 1 to 990 pM; EC50 ([4]; 72 h, Table 2, 72 hours): 1 to 999 pM
COC(=O)N[C@H](C(=O)N1CC2(CC2)C[C@H]1c1ncc(-c2ccc(-c3ccc4cc(-c5cnc([C@@H]6CCCN6C(=O)[C@H](NC(=O)OC)c6ccccc6)[nH]5)ccc4c3)cc2)[nH]1)C(C)C [Example 233] | 1 to 990 | – | 1 to 999 | 1 to 990 | 1 to 999 | 0.005 | –
COC(=O)N[C@H](C(=O)N1C[C@@H](C#N)C[C@H]1c1ncc(-c2ccc3cc(-c4ccc(-c5cnc([C@@H]6CCCN6C(=O)[C@H](NC(=O)OC)c6ccccc6)[nH]5)cc4)ccc3c2)[nH]1)C(C)C [Example 116] | 1 to 990 | – | 1 to 999 | 1 to 990 | 1 to 999 | 0.008 | –
COC(=O)NC(C(=O)N1CCC[C@H]1c1ncc(-c2ccc3c(c2)C(F)(F)c2cc(-c4ccc(-c5cnc([C@@H]6CCCN6C(=O)[C@H](NC(=O)OC)c6ccccc6)[nH]5)cc4)ccc2-3)[nH]1)C1CCOCC1 (stereo partly shown) [Example 199] | 1 to 990 | – | 1000 to 44000 | 1000 to 4990 | 1000 to 44000 | 0.01 | –
COC(=O)N[C@H](C(=O)N1CCC[C@H]1c1ncc(-c2ccc(C#Cc3ccc4c(ccc5nc([C@@H]6CCCN6C(=O)[C@@H](NC(=O)OC)C6CCOCC6)[nH]c54)c3)cc2)[nH]1)C(C)C [Example 229] | 1 to 990 | – | 1 to 999 | 1000 to 4990 | 1 to 999 | 0.018 | –
COC(=O)N[C@H](C(=O)N1CCC[C@H]1c1ncc(-c2ccc3cc(-c4ccc(-c5cnc([C@@H]6[C@@H]7CC[C@@H](C7)N6C(=O)[C@@H](NC(=O)OC)C(C)C)[nH]5)cc4)ccc3c2)[nH]1)C(C)C [Example 52] | 1 to 990 | 0.009 | – | – | – | – | EC50 [1, 6]: 1 to 999 pM; EC50 [3, 7]: 1000 to 4990 pM; EC50 ([4]; 72 h, Table 2, 72 hours): 1000 to 44000 pM
COC(=O)N[C@@H](C)C(=O)N1CCC[C@H]1c1ncc(-c2ccc3c(c2)COc2c-3ccc3cc(-c4cnc([C@@H]5CCCN5C(=O)[C@H](NC(=O)OC)c5ccccc5)[nH]4)ccc23)[nH]1 [Example 7] | 1 to 990 | 0.008 | – | – | – | – | EC50 [1, 10]: 1 to 999 pM; EC50 [3, 11]: 1 to 990 pM; EC50 ([4]; 72 h, Table 1, 72 hours): 1 to 999 pM
